In assay [1] the test system is NICD dependent luciferase activity (Hes-1 reporter). Kind of assay: Hes-Luc luciferase reporter assay in HEK293 cells co-transfected with NotchΔE. It is filed as cell-based, human. Conditions: at concentrations that completely blocked Aβ generation. How it is done:
Figure 2 Generation of NICD and Aβ from NotchΔE and APP expressing cells. A. Twenty four hrs after the construct carrying NotchΔE was transfected into APP expressing HEK293 cells, cells were treated with DAPT or cpd E for 8 hr and lysed for WB with antibody 1744 to specifically detect the N-terminus of NICD. Bottom panel, the antibody against α-tubulin was applied to normalize the amounts of lysates used for WB. B. Levels of NICD determined by WB were quantified by densitometry (dotted line). Levels of Aβ generated from the γ-secretase cleavage of APP in the presence of DAPT were determined by ELISA. […] C. NICD (dotted line) and Aβ (solid line) production from cpd E-treated cells were compared. […] D. A luciferase reporter construct driven by HES1 promoter was transfected into HEK293 cells followed by treatment with cpd E or DAPT.
Semi-quantification of NICD levels was detected by WB, and the inhibition profile of DAPT (Fig. 2B) and cpd E (Fig. 2C) were compared on NICD and Aβ generation in cultured cells. […] Since Notch signaling and levels of NICD can be examined by quantifying the expression of the Notch target gene, a Hes-1 reporter construct (Hes-Luc) was generated by insertion of three Su(H) binding sequences in the pGL3-pro luciferase reporter vector. […]

The subject of assay [2] is zebrafish embryos. Kind of assay: Zebrafish embryo treatment, tail curvature phenotype. It is filed as in vivo. Particulars: 50 μM; for embryo morphology, tail curvature: 24 hpf to 48 hpf, 28°C; for embryo morphology, tail curvature at 4 dpf: kept for four days. How it is done:
Measurements of in vitro γ-secretase activity and cell-based Aβ/NICD generation have shown different inhibition potencies. To examine the inhibitory effect in vivo, zebrafish embryos were treated with DAPT or cpd E. Because different γ-secretase inhibitors may impact various metabolic pathways in zebrafish embryos, especially during development, the phenotypes of zebrafish embryos treated with high concentrations of DAPT and cpd E were compared. The major phenotype we examined was curved tail caused by defective somitogenesis.
Figure 4 Treatment of zebrafish embryos with DAPT causes curved tails. A. A stock of DAPT or cpd E in DMSO was diluted in embryo medium, and increasing concentrations of DAPT or cpd E were applied to de-chorionated zebrafish embryos incubated at 28°C from 24 hpf to 48 hpf. Control embryos were mock-treated with embryo medium containing the same concentration of DMSO. […] B. DAPT- or cpd E-treated embryos were kept until 4 dpf, and images were acquired at 40 × magnification.
Zebrafish embryos were raised and staged according to Kimmel, et al.. Compounds were dissolved in egg water at various final concentrations, and 0.5% DMSO was used as a negative control. Prior to the treatment at 24 hour post fertilization, embryos were de-chorionated manually. Embryos were placed in a 24-well plate (5–6 embryos/well) and treated with the compound containing egg water. Embryos were incubated at 28°C, and photographic images were taken at 2 days and 4 days post fertilization (dpf).
Compound-treated embryos were observed under an OLYMPUS SZX12 microscope. For examination, embryos were removed from the compound containing medium and placed into 0.4% tricane (3-amino benzoic acidethylester, Sigma, St. Louis, MO) solution. Upon anesthetizing, embryos were placed in 3% methylcellulose for positioning and images were recorded with OLYMPUS Q-COLOR3 camera. Images were taken at the 40× magnification for embryos at 2 and 4 dpf.

Assay [3] has as its system Notch target gene her6. In words: Whole mount in situ hybridization of Notch target gene her6 in treated zebrafish embryos. It is filed as in vivo. An excerpt: To examine the effect of DAPT and cpd E on Notch signaling, embryos treated with different concentrations of DAPT or cpd E were stained by whole mount in situ hybridization using a her6 probe (Fig 5). The expression level of Notch downstream target gene her6 correlates to the levels of Notch signaling, i.e., a loss of her6 staining corresponds to an inhibition of γ-secretase mediated Notch signaling. We have focused on the specific effect of γ-secretase inhibitors on Notch signaling in brain region.
Figure 5 Expression levels of Notch target gene her6 are consistent with the curvature phenotype. Increasing concentrations of DAPT or cpd E were applied to de-chorionated zebrafish embryos from 24 hpf until 48 hpf, and in situ hybridization of compound-treated embryos was carried out at 48 hpf using the her6 probe. At least 10 to 20 embryos were examined for each experiment. Images were taken at the 64× magnification for stained embryos.
In situ hybridization of compound-treated embryos was carried out at 2 dpf according to standard protocols using the her6 probe. Single-stranded RNA probes against her6 were synthesized from a cDNA clone (provided by Dr. P Raymond, University of Michigan, Ann Arbor, MI) using T7 RNA polymerase after linearization by restriction digest. The probe was then labeled with digoxigenin-UTP (Roche, Basel, Switzerland). At least 10 to 20 embryos were examined for each experiment. Images were taken at 64× magnification for stained embryos.

Entries after “also recorded” stand apart in the source; their conditions may differ.

In the case of `C[C@H](NC(=O)Cc1cc(F)cc(F)c1)C(=O)N[C@H](C(=O)OC(C)(C)C)c1ccccc1` [DAPT, N-[N-(3,5-Difluorophenacetyl-L-alanyl)]-S-phenylglycine t-Butyl Ester], in assay [1], the luciferase activities remained entry was “about 50%”. Moreover, in assay [2], the “embryo morphology, tail curvature” value was “much shorter and curved tail; also recorded: caused curved trunk and tails; also recorded: curvature of zebrafish tail was found”. For the same molecule, in assay [2], the “embryo morphology, tail curvature at 4 dpf” value is “continued to show the curvature of the tails”. In addition, the her6 expression result is “very similar staining pattern to the control embryos” in assay [3] (0.5 μM, 24 hpf until 48 hpf); “staining of her6 started to appear” in assay [3] (5 μM, 24 hpf until 48 hpf); “significantly reduced or disappeared in most areas” in assay [3] (50 μM, 24 hpf until 48 hpf).
In the case of `C[C@H](NC(=O)Cc1cc(F)cc(F)c1)C(=O)N[C@H]1N=C(c2ccccc2)c2ccccc2N(C)C1=O` [cpd E, (S,S)-2-[2-(3,5-Difluorophenyl)-acetylamino]-N-(1-methyl-2-oxo-5-phenyl-2,3-dihydro-1H-benzo [e] [1,4]diazepin-3-yl)-propionamide], the luciferase activities remained entry in assay [1] is on record as “about 50%”. Besides, the “embryo morphology, tail curvature” value in assay [2] is “lack of dramatic phenotypic alteration”; in assay [2] (listed as Cpd E) it was “did not show any curvature”. Further, in assay [2], the “embryo morphology, tail curvature at 4 dpf” value is listed as “minor effect on embryo morphology”. Besides, the her6 expression entry is on record as “slightly reduced expression level of her6 gene” in assay [3] (50 μM, 24 hpf until 48 hpf) and “reduction of her6 staining” in assay [3] (highest testing doses).

The record behind these values is paper PMC2637266, “Quantification of gamma-secretase modulation differentiates inhibitor compound selectivity between two substrates Notch and amyloid precursor protein” (Molecular Brain, 2008).
